Data from BigSolDB 2.1.

NC(=O)c1ncn([C@@H]2O[C@H](CO)[C@@H](O)[C@H]2O)n1
solubility (mole fraction)
Conditions	278.15 K	283.15 K	288.15 K	293.15 K	298.15 K	303.15 K	308.15 K	313.15 K	318.15 K
in 1,4-dioxane	–	7.06e-05	0.000101	0.000145	0.000203	0.000282	0.000387	0.000527	0.000712
in acetonitrile	8.6e-06	1.33e-05	1.94e-05	2.77e-05	3.96e-05	5.64e-05	7.88e-05	0.00011	0.00015
in methanol	0.000379	0.000517	0.000711	0.000952	0.00128	0.00171	0.00223	0.00293	0.00379
in n-propanol	5.99e-05	8.69e-05	0.000122	0.000171	0.000242	0.000332	0.000455	0.000617	0.000829
in water	0.0058	0.00775	0.0104	0.0135	0.0174	0.0219	0.0273	0.0335	0.0405
